Source: PMC10094450, “Investigation of the Entry Pathway and Molecular Nature of σ1 Receptor Ligands” (International Journal of Molecular Sciences, 2023)
Read-outs that look alike come from different tables or passages of the source.

What was measured:
[1] = biological target: T1, Hsσ1-R (Homo sapiens, UniProt Q99720); test: Fluorescence titration (intrinsic tryptophan fluorescence quenching) of purified Hsσ1-R
[2] = biological target: T1, Hsσ1-R; parameters: FLAG; made in house; host or cells: Sf9 insect cells (baculovirus, pFastbac1); method as in PMID 33525510; conditions: purified σ1R immobilized on a matrix; read-out: KD by SPR; cited from earlier work
[3] = read-out: KD2, low-affinity site, two-site model, 25 °C

T1 sequence (Q99720 whole entry): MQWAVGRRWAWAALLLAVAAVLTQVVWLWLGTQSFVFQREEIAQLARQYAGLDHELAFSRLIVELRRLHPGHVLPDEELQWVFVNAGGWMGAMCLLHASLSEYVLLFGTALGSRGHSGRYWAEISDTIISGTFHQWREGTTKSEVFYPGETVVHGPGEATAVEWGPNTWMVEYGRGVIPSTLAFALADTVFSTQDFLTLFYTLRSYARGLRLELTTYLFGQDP

| Kd ([1]; read-out: KD1, high-affinity site, two-site model, 25 °C) | Kd [1, 3] | KD for the high affinity site, fold better than that of pridopidine ([1]; versus pridopidine, same assay) | Kd [1] | Compound | Kd [2] |
| --- | --- | --- | --- | --- | --- |
| 0.01 ± 0.004 µM | 15.8 ± 4.03 µM | 25 fold | – | CC(=O)C1=CC[C@H]2[C@@H]3CCC4=CC(=O)CC[C@]4(C)[C@H]3CC[C@]12C [16,17-didehydroprogesterone] | – |
| – | 33.1 ± 14.4 µM | – | 0.019 ± 0.015 µM | COc1cc(C(C)=O)ccc1OCCCN1CCC(c2noc3cc(F)ccc23)CC1 [Iloperidone] | 5 µM |
